Measurements published in patent publication US20240228506A1, “RIPK1 INHIBITORS AND METHODS OF USE” (Merck Sharp & Dohme LLC, priority 2021, published 2024).
pIC50: −log10 of the molar value.

target: T1, GST-RIPK1 (recombinant GST-RIPK1 kinase domain (residues 1-327)) (Homo sapiens, UniProt Q13546); assay: RIPK1-ADP-Glo enzymatic assay; assay type: biochemical; conditions: 25 nM GST-RIPK1, 300 μM ATP, 3 μM dephosphorylated-MBP; 30 minutes pre-incubation, 150 minutes reaction; ten-point titration
T1 construct: recombinant GST-RIPK1 kinase domain (residues 1-327) enzyme; made in house; host or cells: baculovirus-transfected Sf21 insect cells
T1 sequence (Q13546 1-327): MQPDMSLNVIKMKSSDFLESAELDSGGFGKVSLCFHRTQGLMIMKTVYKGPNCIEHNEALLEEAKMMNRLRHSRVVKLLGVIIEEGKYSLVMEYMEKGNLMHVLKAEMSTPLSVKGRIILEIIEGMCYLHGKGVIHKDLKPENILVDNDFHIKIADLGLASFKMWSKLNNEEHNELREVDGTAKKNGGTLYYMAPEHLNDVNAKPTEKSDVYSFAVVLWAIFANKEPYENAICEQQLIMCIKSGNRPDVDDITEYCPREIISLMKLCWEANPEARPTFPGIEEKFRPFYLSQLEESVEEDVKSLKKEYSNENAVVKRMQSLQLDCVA
Method in brief: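 Ten-point 1:3 titrations from 100000 nM, 1% DMSO, were preincubated 30 min with 25 nM GST-RIPK1 (1-327) before starting with 300 μM ATP plus 3 μM dephosphorylated MBP; 150 min reaction. ADP-Glo luminescence measured ATP-to-ADP conversion; EC50 by four-parameter sigmoidal regression.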

pIC50	Structure (SMILES)
7.74	N#Cc1cncc2c1O[C@H]1C[C@@H]2N(C(=O)C23CCC(F)(CC2)C3)C1 [Compound 1-7, (2S,5S)-4-(4-fluorobicyclo[2.2.1]heptane-1-carbonyl)-2,3,4,5-tetrahydro-2,5-methanopyrido[3,4-f][1,4]oxazepine-9-carbonitrile]
7.30	C#Cc1cncc2c1O[C@H]1C[C@@H]2N(C(=O)C(C)(C)C)C1 [Compound 2-17, 1-((2S,5S)-9-Ethynyl-2,3-dihydro-2,5-methanopyrido[3,4-f][1,4]oxazepin-4(5H)-yl)-2,2-dimethylpropan-1-one]
7.92	N#Cc1cccc(C#Cc2cncc3c2O[C@H]2C[C@@H]3N(C(=O)C34CCC(F)(CC3)C4)C2)c1 [Compound 2-100, 3-(((2S,5S)-4-(4-fluorobicyclo[2.2.1]heptane-1-carbonyl)-2,3,4,5-tetrahydro-2,5-methanopyrido[3,4-f][1,4]oxazepin-9-yl)ethynyl)benzonitrile]
7.27	N#Cc1cncc2c1O[C@H]1C[C@@H]2N(C(=O)C23CCC(C2)C3)C1 [Compound 1-31, (2S,5S)-4-(bicyclo[2.1.1]hexane-1-carbonyl)-2,3,4,5-tetrahydro-2,5-methanopyrido[3,4-f][1,4]oxazepine-9-carbonitrile]
6.94	CC(C)(C(=O)N1C[C@@H]2C[C@H]1c1cncc(C#CCF)c1O2)C(F)F [Compound 2-113, 3,3-difluoro-1-((2S,5S)-9-(3-fluoroprop-1-yn-1-yl)-2,3-dihydro-2,5-methanopyrido[3,4-f][1,4]oxazepin-4(5H)-yl)-2,2-dimethylpropan-1-one]
7.14	CC(C)(C(=O)N1C[C@@H]2C[C@H]1c1cncc(C#Cc3cnc4ncnn4c3)c1O2)C(F)F [Compound 2-79, 1-((2S,5S)-9-([1,2,4]triazolo[1,5-a]pyrimidin-6-ylethynyl)-2,3-dihydro-2,5-methanopyrido[3,4-f][1,4]oxazepin-4(5H)-yl)-3,3-difluoro-2,2-dimethylpropan-1-one]
7.17	CC(C)(C(=O)N1C[C@@H]2C[C@H]1c1cncc(C#Cc3ncco3)c1O2)C(F)F [Compound 2-72]
7.62	CC(C)C(C)(C)C(=O)N1C[C@@H]2C[C@H]1c1cncc(C#N)c1O2 [Compound 1-34, (2S,5S)-4-(2,2,3-trimethylbutanoyl)-2,3,4,5-tetrahydro-2,5-methanopyrido[3,4-f][1,4]oxazepine-9-carbonitrile]
7.00	CC(C)(C#N)C(=O)N1C[C@@H]2C[C@H]1c1cncc(C#N)c1S2 [Compound 4-5, (2S,5S)-4-(2-cyano-2-methylpropanoyl)-2,3,4,5-tetrahydro-2,5-methanopyrido[3,4-f][1,4]thiazepine-9-carbonitrile]
6.32	CC(C)(CC(F)(F)F)C(=O)N1C[C@@H]2C[C@H]1c1cncc(C#N)c1O2 [Compound 1-35, (2S,5S)-4-(4,4,4-trifluoro-2,2-dimethylbutanoyl)-2,3,4,5-tetrahydro-2,5-methanopyrido[3,4-f][1,4]oxazepine-9-carbonitrile]
7.59	CC(C)(C(=O)N1C[C@@H]2C[C@H]1c1cncc(C#Cc3ccc(C(F)F)nc3)c1O2)C(F)F [Compound 2-84, 1-((2S,5S)-9-((6-(difluoromethyl)pyridin-3-yl)ethynyl)-2,3-dihydro-2,5-methanopyrido[3,4-f][1,4]oxazepin-4(5H)-yl)-3,3-difluoro-2,2-dimethylpropan-1-one]

Further lines, the compound ahead of its results:

Structure (SMILES)	pIC50
O=C(N1C[C@@H]2C[C@H]1c1cncc(C#Cc3cnc4ccoc4c3)c1O2)C12CCC(C(F)(F)F)(CC1)C2 [Compound 2-53, ((2S,5S)-9-(furo[3,2-b]pyridin-6-ylethynyl)-2,3-dihydro-2,5-methanopyrido[3,4-f][1,4]oxazepin-4(5H)-yl)(4-(trifluoromethyl)bicyclo [2.2.1]heptan-1-yl)methanone]	7.77
CC(C)(C(=O)N1C[C@@H]2C[C@H]1c1cncc(C#CCC3CCCCC3)c1O2)C(F)F [Compound 2-109, 1-((2S,5S)-9-(3-cyclohexylprop-1-yn-1-yl)-2,3-dihydro-2,5-methanopyrido[3,4-f][1,4]oxazepin-4(5H)-yl)-3,3-difluoro-2,2-dimethylpropan-1-one]	6.74
N#Cc1cncc2c1O[C@H]1C[C@@H]2N(C(=O)C2(F)CC(Oc3ccc(F)cc3F)C2)C1 (single isomer, unassigned) [Compound 1-106, (2S,5S)-4-(3-(2,4-difluorophenoxy)-1-(R or S)-fluorocyclobutane-1-carbonyl)-2,3,4,5-tetrahydro-2,5-methanopyrido[3,4-f][1,4]oxazepine-9-carbonitrile]	7.22
N#Cc1cncc2c1O[C@H]1C[C@@H]2N(C(=O)C2(C(F)(F)F)CC2)C1 [Compound 1-75, (2S,5S)-4-(1-(trifluoromethyl)cyclopropane-1-carbonyl)-2,3,4,5-tetrahydro-2,5-methanopyrido[3,4-f][1,4]oxazepine-9-carbonitrile]	6.26
O=C(N1C[C@@H]2C[C@H]1c1cncc(C#Cc3cccnc3)c1O2)C12CCC(F)(CC1)C2 [Compound 2-101, (4-fluorobicyclo[2.2.1]heptan-1-yl)((2S,5S)-9-(pyridin-3-ylethynyl)-2,3-dihydro-2,5-methanopyrido[3,4-f][1,4]oxazepin-4(5H)-yl)methanone]	7.92
CC(C)(C(=O)N1C[C@@H]2C[C@H]1c1cncc(C#N)c1O2)C(F)(F)F [Compound 1-9, (2S,5S)-4-(3,3,3-trifluoro-2,2-dimethylpropanoyl)-2,3,4,5-tetrahydro-2,5-methanopyrido[3,4-f][1,4]oxazepine-9-carbonitrile]	7.70
Cc1ccncc1C#Cc1cncc2c1O[C@H]1C[C@@H]2N(C(=O)C23CCC(C(F)(F)F)(CC2)C3)C1 [Compound 2-63, ((2S,5S)-9-((4-methylpyridin-3-yl)ethynyl)-2,3-dihydro-2,5-methanopyrido[3,4-f][1,4]oxazepin-4(5H)-yl)(4-(trifluoromethyl)bicyclo [2.2.1]heptan-1-yl)methanone]	7.85
CC(C)(C)C(=O)N1C[C@@H]2C[C@H]1c1cncc(C#Cc3cc(C(F)(F)F)ccn3)c1O2 [Compound 2-35, 2,2-dimethyl-1-((2S,5S)-9-((4-(trifluoromethyl)pyridin-2-yl)ethynyl)-2,3-dihydro-2,5-methanopyrido[3,4-f][1,4]oxazepin-4(5H)-yl)propan-1-one]	6.75
N#Cc1cncc2c1O[C@H]1C[C@@H]2N(C(=O)[C@H]2C[C@H](Oc3ccc(F)cc3F)C2)C1 [Compound 1-102]	7.12
N#Cc1cncc2c1O[C@H]1C[C@@H]2N(C(=O)C23CCC(CC2)C3)C1 [Compound 1-6, (2S,5S)-4-(bicyclo[2.2.1]heptane-1-carbonyl)-2,3,4,5-tetrahydro-2,5-methanopyrido[3,4-f][1,4]oxazepine-9-carbonitrile]	7.96
CC(C)(C(=O)N1C[C@@H]2C[C@H]1c1cncc(C#CCn3nnc4ccccc43)c1O2)C(F)F [Compound 2-40, 1-((2S,5S)-9-(3-(1H-benzo[d][1,2,3]triazol-1-yl)prop-1-yn-1-yl)-2,3-dihydro-2,5-methanopyrido[3,4-f][1,4]oxazepin-4(5H)-yl)-3,3-difluoro-2,2-dimethylpropan-1-one]	6.85
N#Cc1cncc2c1O[C@H]1C[C@@H]2N(C(=O)C23CCC(C(F)(F)F)(CC2)C3)C1 [Compound 1-2, (2S,5S)-4-[4-(trifluoromethyl)bicyclo[2.2.1]heptane-1-carbonyl]-2,3,4,5-tetrahydro-2,5-methanopyrido[3,4-f][1,4]oxazepine-9-carbonitrile]	8.15
O=C(N1C[C@@H]2C[C@H]1c1cncc(C#Cc3ccc(F)cc3F)c1O2)C12CCC(C(F)(F)F)(CC1)C2 [Compound 2-59, ((2S,5S)-9-((2,4-difluorophenyl)ethynyl)-2,3-dihydro-2,5-methanopyrido[3,4-f][1,4]oxazepin-4(5H)-yl)(4-(trifluoromethyl)bicyclo[2.2.1]heptan-1-yl)methanone]	7.66
CC(C)(C(=O)N1C[C@@H]2C[C@H]1c1cncc(Cl)c1O2)C(F)F [Compound 2-2, 1-((2S,5S)-9-Chloro-2,3-dihydro-2,5-methanopyrido[3,4-f][1,4]oxazepin-4(5H)-yl)-3,3-difluoro-2,2-dimethylpropan-1-one]	6.86
CC(C)(C(=O)N1C[C@@H]2C[C@H]1c1cncc(C#Cc3cnc(C(F)(F)F)nc3)c1O2)C(F)F [Compound 2-77, 3,3-difluoro-2,2-dimethyl-1-((2S,5S)-9-((2-(trifluoromethyl)pyrimidin-5-yl)ethynyl)-2,3-dihydro-2,5-methanopyrido[3,4-f][1,4]oxazepin-4(5H)-yl)propan-1-one]	7.31
CC(C)(C(=O)N1C[C@@H]2C[C@H]1c1cncc(C#Cc3cncc(C#N)c3)c1O2)C(F)F [Compound 2-85, 5-(((2S,5S)-4-(3,3-difluoro-2,2-dimethylpropanoyl)-2,3,4,5-tetrahydro-2,5-methanopyrido[3,4-f][1,4]oxazepin-9-yl)ethynyl)nicotinonitrile]	7.42
N#Cc1cncc2c1OC[C@H]1CC[C@@H]2N1C(=O)C12CCC(C(F)(F)F)(CC1)C2 [Compound 5-2, (3R,6S)-11-(4-(trifluoromethyl)bicyclo[2.2.1]heptane-1-carbonyl)-3,4,5,6-tetrahydro-2H-3,6-epiminooxocino[3,2-c]pyridine-10-carbonitrile]	6.94
